Measurements as given in patent US7674819B2 (Warner-Lambert Company LLC, priority 2005, dated 2010).
Positions count from the first letter of the chain named. Read-outs that look alike come from different tables or passages of the source.

Columns and labels:
hAR = target: T1, hAR (Homo sapiens, UniProt P10275); assay: Competitive binding of 3H-DHT to baculovirus/Sf9 generated hAR extracts; details: one hour at 4° C., mean of multiple tests
T1 sequence (P10275 1-920): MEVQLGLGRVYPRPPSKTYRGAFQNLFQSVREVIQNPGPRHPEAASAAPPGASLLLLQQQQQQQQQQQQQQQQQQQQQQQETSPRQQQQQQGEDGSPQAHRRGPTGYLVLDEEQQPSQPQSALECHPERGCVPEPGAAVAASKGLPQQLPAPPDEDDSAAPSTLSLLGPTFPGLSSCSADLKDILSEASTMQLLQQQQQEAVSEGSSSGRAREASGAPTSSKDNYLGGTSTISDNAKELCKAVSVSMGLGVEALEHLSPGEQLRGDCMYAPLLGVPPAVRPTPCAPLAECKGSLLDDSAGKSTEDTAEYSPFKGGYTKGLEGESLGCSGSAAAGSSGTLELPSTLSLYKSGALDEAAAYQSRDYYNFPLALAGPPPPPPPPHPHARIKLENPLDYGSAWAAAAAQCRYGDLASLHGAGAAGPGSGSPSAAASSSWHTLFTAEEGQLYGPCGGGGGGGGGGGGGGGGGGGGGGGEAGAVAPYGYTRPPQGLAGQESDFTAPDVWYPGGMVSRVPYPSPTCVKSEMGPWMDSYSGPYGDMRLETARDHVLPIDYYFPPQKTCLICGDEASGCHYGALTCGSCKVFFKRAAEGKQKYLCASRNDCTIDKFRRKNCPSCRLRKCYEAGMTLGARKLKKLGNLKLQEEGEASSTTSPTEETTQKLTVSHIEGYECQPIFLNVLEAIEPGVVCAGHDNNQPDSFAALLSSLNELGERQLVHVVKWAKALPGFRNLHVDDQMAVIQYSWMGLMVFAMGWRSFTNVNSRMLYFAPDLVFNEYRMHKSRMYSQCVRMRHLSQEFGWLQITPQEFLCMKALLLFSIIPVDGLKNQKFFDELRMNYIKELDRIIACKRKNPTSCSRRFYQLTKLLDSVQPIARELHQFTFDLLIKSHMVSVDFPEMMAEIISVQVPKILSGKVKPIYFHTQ
How it was run: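 Baculovirus/Sf9-expressed hAR extract incubated with test compound, hydroxylapatite and 1 nM 3H-DHT tracer for 1 h at 4° C, then washed free of unbound tracer. Affinity given as concentration inhibiting half of maximal 3H-DHT binding.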

androgen receptor = target: T2, androgen receptor (Homo sapiens, UniProt P10275); assay: AR Antagonist Cell Assay (MDA-MB453-MMTV clone 54-19, luciferase reporter); type: cell-based; details: inhibition of induction by DHT (final concentration at 100 μM), 17 hr, compound 0.32-1000 nM, mean of multiple tests
T2 sequence (P10275 1-920 Q868H): T1 sequence (P10275 1-920) with Q868H
Description: The compounds ability to antagonize the effects of androgen on the androgen receptor were determined in a whole cell assay as described immediately below.
Experimental Procedure for AR Antagonist Cell Assay
This cell line is a stable transfected cell line with MDA-MB453 cell background (a human breast tumor cell line expressing androgen receptor). A MMTV minimal promoter containing ARE was first cloned in front of a firefly luciferase reporter gene. Then the cascade was cloned into transfection vector pUV120puro. […] Puromycin resistant stable cell line was selected.
Cell Culture Media and Reagents:
Plating medium: DMEM (phenol red free), 10% charcoal treated HyClone serum, 1% L-glutamine
Assay medium: DMEM (phenol red free), 1% charcoal treated HyClone serum, 1% L-glutamine, 1% penicillin/streptomycin
Cells are maintained in culture medium, splitting cells when they reach 80-90% confluence
To test compounds, 10,000 cells/well are plated to opaque 96 cell culture plate in 100 ul/well plating medium, culture for overnight at 37° C. in cell culture incubator
Add 10 ul/well freshly prepared DHT (final concentration at […]) to each well, incubate at 37° C. for 17 hr (overnight)
Add 50 ul/well 3× luciferase buffer, incubate at room temperature for 5 minutes, then count on Luminometer
The results are reported as the mean of multiple tests described below (the numbers of tests are indicated in the footnote). N.D. denotes that the compound was not tested.

[1] = IC50, concentration at which one half of maximum binding of 1 nM 3H-DHT to hAR is inhibited
[2] = concentration at which one half of maximum binding of 1 nM 3H-DHT to hAR is inhibited, read-out: IC50

CC1(C)CN(Cc2nnc(-c3ccc(O)cc3)o2)C(=O)C1Oc1ccc(C#N)c(C(F)(F)F)c1 (stereo not drawn) [Example 114, 4-{1-[5-(4-Hydroxy-phenyl)-[1,3,4]oxadiazol-2-ylmethyl]-4,4-dimethyl-2-oxo-pyrrolidin-3-yloxy}-2-trifluoromethyl-benzonitrile]
IC50 (hAR; [1]): 41 nM | IC50 (androgen receptor; read-out: IC50): 656 nM

COc1ccc(Cc2noc(CN3CC(C)(C)C(Oc4ccc(C#N)c(C(F)(F)F)c4)C3=O)n2)cc1 (stereo not drawn) [Example 50, 4-{1-[3-(4-Methoxy-benzyl)-[1,2,4]oxadiazol-5-ylmethyl]-4,4-dimethyl-2-oxo-pyrrolidin-3-yloxy}-2-trifluoromethyl-benzonitrile]
IC50 (hAR; [2]): 152 nM | IC50 (androgen receptor): 35 nM

CC1(C)CN(Cc2ccc(O)cc2)C(=O)C1Oc1ccc(C#N)c(C(F)(F)F)c1 (stereo not drawn) [Example 8, 4-[1-(4-Hydroxy-benzyl)-4,4-dimethyl-2-oxo-pyrrolidin-3-yloxy]-2-trifluoromethyl-benzonitrile]
IC50 (hAR; [1]): 17 nM | IC50 (androgen receptor): 33 nM

CC1(C)CN(S(=O)(=O)c2ccccc2)C(=O)C1Oc1ccc(C#N)c(C(F)(F)F)c1 (stereo not drawn) [Example 73, 4-(1-Benzenesulfonyl-4,4-dimethyl-2-oxo-pyrrolidin-3-yloxy)-2-trifluoromethyl-benzonitrile]
IC50 (hAR; [2]): 206 nM | IC50 (androgen receptor): 49 nM

CC1(C)CN(S(=O)(=O)c2cccc(C#N)c2)C(=O)C1Oc1ccc(C#N)c(C(F)(F)F)c1 (stereo not drawn) [Example 88, 4-[1-(3-Cyano-benzenesulfonyl)-4,4-dimethyl-2-oxo-pyrrolidin-3-yloxy]-2-trifluoromethyl-benzonitrile]
IC50 (hAR; [2]): 110 nM | IC50 (androgen receptor; read-out: IC50): 134 nM

CC1(C)CN(S(=O)(=O)c2cccc(O)c2)C(=O)C1Oc1ccc(C#N)c(C(F)(F)F)c1 (stereo not drawn) [Example 95, 4-[1-(3-Hydroxy-benzenesulfonyl)-4,4-dimethyl-2-oxo-pyrrolidin-3-yloxy]-2-trifluoromethyl-benzonitrile]
IC50 (hAR; [1]): 8 nM | IC50 (androgen receptor; read-out: IC50): > 1000 nM

CC1(C)CN(Cc2ccc3nsnc3c2)C(=O)C1Oc1ccc(C#N)c(C(F)(F)F)c1 (stereo not drawn) [Example 39, 4-(1-Benzo[1,2,5]thiadiazol-5-ylmethyl-4,4-dimethyl-2-oxo-pyrrolidin-3-yloxy)-2-trifluoromethyl-benzonitrile]
IC50 (hAR; [1]): 64 nM | IC50 (androgen receptor): 74 nM

CC1(C)CN(Cc2cccc(C#N)c2)C(=O)C1Oc1ccc(C#N)c(C(F)(F)F)c1 (stereo not drawn) [Example 45]
IC50 (hAR; [1]): 50 nM | IC50 (androgen receptor): 50 nM

CC1(C)CN(Cc2nnc(-c3cccc(O)c3)o2)C(=O)C1Oc1ccc(C#N)c(C(F)(F)F)c1 (stereo not drawn) [Example 113, 4-{1-[5-(3-Hydroxy-phenyl)-[1,3,4]oxadiazol-2-ylmethyl]-4,4-dimethyl-2-oxo-pyrrolidin-3-yloxy)-2-trifluoromethyl-benzonitrile]
IC50 (hAR; [2]): 224 nM | IC50 (androgen receptor; read-out: IC50): 651 nM

CC(C)OC(=O)c1ccc(CN2CC(C)(C)C(Oc3ccc(C#N)c(C(F)(F)F)c3)C2=O)o1 (stereo not drawn) [Example 27, 5-[3-(4-Cyano-3-trifluoromethyl-phenoxy)-4,4-dimethyl-2-oxo-pyrrolidin-1-ylmethyl]-furan-2-carboxylic acid isopropyl ester]
IC50 (hAR; [1]): 44 nM | IC50 (androgen receptor; read-out: IC50): 368 nM

CC1(C)CN(Cc2nnc(-c3ccccc3O)o2)C(=O)C1Oc1ccc(C#N)c(C(F)(F)F)c1 (stereo not drawn) [Example 112, 4-{1-[5-(2-Hydroxy-phenyl)-[1,3,4]oxadiazol-2-ylmethyl]-4,4-dimethyl-2-oxo-pyrrolidin-3-yloxy}-2-trifluoromethyl-benzonitrile]
IC50 (hAR; [1]): 85 nM | IC50 (androgen receptor; read-out: IC50): 198 nM

CC1(C)CN(Cc2ccc(-n3cccn3)cc2)C(=O)C1Oc1ccc(C#N)c(C(F)(F)F)c1 (stereo not drawn) [Example 60, 4-[4,4-Dimethyl-2-oxo-1-(4-pyrazol-1-yl-benzyl)-pyrrolidin-3-yloxy]-2-trifluoromethyl-benzonitrile]
IC50 (hAR; [2]): 115 nM | IC50 (androgen receptor; read-out: IC50): > 1000 nM

COc1cccc(CN2CC(C)(C)C(Oc3ccc(C#N)c(C(F)(F)F)c3)C2=O)c1 (stereo not drawn) [Example 12, 4-[1-(3-Methoxy-benzyl)-4,4-dimethyl-2-oxo-pyrrolidin-3-yloxy]-2-trifluoromethyl-benzonitrile]
IC50 (hAR; [1]): 111 nM | IC50 (androgen receptor): 310 nM

COc1ccc(-c2nc(CN3CC(C)(C)C(Oc4ccc(C#N)c(C(F)(F)F)c4)C3=O)no2)cc1 (stereo not drawn) [Example 66, 4-{1-[5-(4-Methoxy-phenyl)-[1,2,4]oxadiazol-3-ylmethyl]-4,4-dimethyl-2-oxo-pyrrolidin-3-yloxy}-2-trifluoromethyl-benzonitrile]
IC50 (hAR; [2]): 142 nM | IC50 (androgen receptor): 84 nM

COc1cccc(C(C)N2CC(C)(C)C(Oc3ccc(C#N)c(C(F)(F)F)c3)C2=O)c1 (single isomer, unassigned; (+)) [Example 23, (+)-4-{1-[1-(3-Methoxy-phenyl)-ethyl]-4,4-dimethyl-2-oxo-pyrrolidin-3-yloxy}-2-trifluoromethyl-benzonitrile]
IC50 (hAR; [1]): 64 nM | IC50 (androgen receptor): 58 nM

CC1(C)CN(Cc2ccncc2)C(=O)C1Oc1ccc(C#N)c(C(F)(F)F)c1 (stereo not drawn) [Example 35, 4-(4,4-Dimethyl-2-oxo-1-pyridin-4-ylmethyl-pyrrolidin-3-yloxy)-2-trifluoromethyl-benzonitrile]
IC50 (hAR; [1]): 128 nM | IC50 (androgen receptor): 486 nM

COC(=O)c1cccc(CN2CC(C)(C)C(Oc3ccc(C#N)c(C(F)(F)F)c3)C2=O)c1 (racemic) [Example 25, (±)-3-[3-(4-Cyano-3-trifluoromethyl-phenoxy)-4,4-dimethyl-2-oxo-pyrrolidin-1-ylmethyl]-benzoic acid methyl ester]
IC50 (hAR; [1]): 48 nM | IC50 (androgen receptor; read-out: IC50): 107 nM

CC1(C)CN(Cc2nc(-c3ccccc3)no2)C(=O)C1Oc1ccc(C#N)c(C(F)(F)F)c1 (stereo not drawn) [Example 52, 4-[4,4-Dimethyl-2-oxo-1-(3-phenyl-[1,2,4]oxadiazol-5-ylmethyl)-pyrrolidin-3-yloxy]-2-trifluoromethyl-benzonitrile]
IC50 (hAR; [1]): 160 nM | IC50 (androgen receptor): 54 nM
